Data taken from patent US20230145305A1, “COMPOUNDS USEFUL AS KINASE INHIBITORS” (Fochon Biosciences, Ltd., priority 2020, published 2023).

target: T1, BTK (C481S) (Homo sapiens, UniProt Q06187, C481S); assay: Kinase assay of BTK (C481S), [33P]-ATP filter-binding, Reaction Biology Corporation; type: biochemical; conditions: 6 nM BTK (C481S), 0.2 mg/ml pEY substrate, 10 μM ATP, 20 min preincubation, 120 min reaction at room temperature
T1 construct: purchased SignalChem B10-12CH
Method: The kinase activity of BTK (C481S) was assayed at Reaction Biology Corporation. The substrate in the BTK (C481S) reaction, pEY (poly[Glu:Tyr] (4:1)) (Sigma, Cat. #P7244-250MG), was prepared in fresh reaction buffer (20 mM Hepes (pH 7.5), 10 mM MgCl2, 1 mM EGTA, 0.02% Brij35, 0.02 mg/mi BSA, 0.1 mM Na3VO4, 2 mM DTT, 1% DMSO). BTK(C481S) (SignalChem, Cat. #B10-12CH) was delivered into the substrate solution and mixed gently. The final concentrations of BTK (C481S) and the substrate in the reaction mixture were 6 nM and 0.2 mg/ml, respectively. Compounds were tested in 10-point concentration/response mode with 3-fold serial dilution steps starting at 1 μM.
Compounds in 100% DMSO were delivered into the kinase reaction mixture by acoustic liquid delivery technology (Echo550; nanoliter range) and incubated for 20 min at room temperature. 10 μM [^33P]-ATP (ATP: Sigma, Cat #: A7699; [^33P]-ATP: Hartmann Analytic, Cat #: SCF-301-12) was delivered into the reaction mixture to initiate the reaction. The mixture was incubated for 120 min at room temperature. Radioactivity was detected utilizing a proprietary filter-binding method. Kinase activity data were expressed as the percent remaining kinase activity in test samples compared to vehicle (DMSO) reactions. IC50 values were obtained using GraphPad Prism software.
Select compounds prepared as described above were assayed according to the biological procedures described herein.

T1 sequence (Q06187 whole entry C481S): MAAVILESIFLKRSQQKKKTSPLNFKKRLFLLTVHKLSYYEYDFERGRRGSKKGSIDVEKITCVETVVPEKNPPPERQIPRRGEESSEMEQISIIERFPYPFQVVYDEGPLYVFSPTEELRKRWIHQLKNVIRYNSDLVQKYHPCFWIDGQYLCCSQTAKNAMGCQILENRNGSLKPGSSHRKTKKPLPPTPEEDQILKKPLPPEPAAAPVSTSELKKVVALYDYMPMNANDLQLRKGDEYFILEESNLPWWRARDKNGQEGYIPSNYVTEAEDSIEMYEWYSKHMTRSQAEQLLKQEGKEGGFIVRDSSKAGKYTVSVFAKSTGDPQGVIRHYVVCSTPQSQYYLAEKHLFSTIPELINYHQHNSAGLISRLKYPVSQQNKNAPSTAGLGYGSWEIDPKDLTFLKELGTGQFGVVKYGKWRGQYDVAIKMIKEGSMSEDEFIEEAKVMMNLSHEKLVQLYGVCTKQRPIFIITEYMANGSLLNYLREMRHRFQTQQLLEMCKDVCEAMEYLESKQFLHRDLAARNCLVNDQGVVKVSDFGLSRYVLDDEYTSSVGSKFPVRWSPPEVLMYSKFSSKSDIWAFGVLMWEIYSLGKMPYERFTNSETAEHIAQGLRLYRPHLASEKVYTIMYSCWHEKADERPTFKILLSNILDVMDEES

| SMILES | IC50 |
| --- | --- |
| COc1ccccc1C(=O)NCc1ccc(-n2cc(C3CCCC3)c3c(=O)[nH]nc(N)c32)cc1 [Example 1, N-(4-(7-amino-3-cyclopentyl-4-oxo-4,5-dihydro-1H-pyrrolo[2,3-d]pyridazin-1-yl)benzyl)-2-methoxybenzamide] | 5 nM |
| COc1ccccc1C(=O)NCc1ccc(-n2nc(C3CCCC3)c3c(=O)[nH]nc(N)c32)cc1 [Example 2, N-(4-(7-amino-3-cyclopentyl-4-oxo-4,5-dihydro-1H-pyrazolo[3,4-d]pyridazin-1-yl)benzyl)-2-methoxybenzamide] | 3.3 nM |
| COc1ccccc1C(=O)NCc1ccc(-c2cn(C3CCCC3)c3c(=O)[nH]nc(N)c23)cc1 [Example 4, N-(4-(4-amino-1-cyclopentyl-7-oxo-6,7-dihydro-1H-pyrrolo[2,3-d]pyridazin-3-yl)benzyl)-2-methoxybenzamide] | 6.5 nM |
| COc1ccccc1C(=O)NCc1ccc(-c2nn(C3CCCC3)c3c(=O)[nH]nc(N)c23)cc1 [Example 5, N-(4-(4-amino-1-cyclopentyl-7-oxo-6,7-dihydro-1H-pyrazolo[3,4-d]pyridazin-3-yl)benzyl)-2-methoxybenzamide] | 8 nM |
| COc1ccccc1C(=O)NCc1ccc(-c2nc(C3CCCC3)n3ncnc(N)c23)cc1 [Example 6, N-(4-(4-amino-7-cyclopentylimidazo[5,1-f][1,2,4]triazin-5-yl)benzyl)-2-methoxybenzamide] | 7.8 nM |
| COc1ccccc1C(=O)NCc1ccc(-c2nc(C3CCCC3)n3ccnc(N)c23)cc1 [Example 7, N-(4-(8-amino-3-cyclopentylimidazo[1,5-a]pyrazin-1-yl)benzyl)-2-methoxybenzamide] | 3 nM |

tested on: OCI-LY10 cells; assay: Cell proliferation assay (MTS) in OCI-LY10 cells; type: cell-based; conditions: Homo sapiens; inhibition of OCI-LY10 cells proliferation, 72 h incubation, MTS, absorbance at 490 nm; read-out: OCI-LY10 IC50
Excerpt: MTS testing kit was purchased from Promega (Madison, Wis., USA). The RPMI-1640, Fetal bovine serum and Penicillin-Streptomycin were purchased from BI (Biological Industries, Beit Haemek, Israel). Dimethyl sulfoxide (DMSO) was purchased from Sigma (St. Louis., Mo., USA). […] To investigate whether a compound is able to inhibit the activity of BTK in cells, a mechanism-based assay using OCI-LY10 cells was developed. In this assay, inhibition of BTK was detected by the inhibition of OCI-LY10 cells proliferation. Cells were plated into 96-well plates at a density of 10000 cells/well. Plates were incubated at 37° C., with 5% CO2 for 4 h. […] Plates were incubated at 37° C., with 5% CO2 for 72 h. 20 μl MTS was added into each well and the plates were incubated at 37° C., with 5% CO2 for exactly 2 h. The absorbance was measured by a microplate reader at 490 nm. IC50 was calculated using GraphPad Prism 5.0 software. Select compounds prepared as described above were assayed according to the biological procedures described herein.

| SMILES | IC50 |
| --- | --- |
| COc1ccccc1C(=O)NCc1ccc(-n2cc(C3CCCC3)c3c(=O)[nH]nc(N)c32)cc1 [Example 1, N-(4-(7-amino-3-cyclopentyl-4-oxo-4,5-dihydro-1H-pyrrolo[2,3-d]pyridazin-1-yl)benzyl)-2-methoxybenzamide] | 28 nM |
| COc1ccccc1C(=O)NCc1ccc(-n2nc(C3CCCC3)c3c(=O)[nH]nc(N)c32)cc1 [Example 2, N-(4-(7-amino-3-cyclopentyl-4-oxo-4,5-dihydro-1H-pyrazolo[3,4-d]pyridazin-1-yl)benzyl)-2-methoxybenzamide] | 34 nM |
| COc1ccccc1C(=O)NCc1ccc(-c2cn(C3CCCC3)c3c(=O)[nH]nc(N)c23)cc1 [Example 4, N-(4-(4-amino-1-cyclopentyl-7-oxo-6,7-dihydro-1H-pyrrolo[2,3-d]pyridazin-3-yl)benzyl)-2-methoxybenzamide] | 69 nM |
| COc1ccccc1C(=O)NCc1ccc(-c2nn(C3CCCC3)c3c(=O)[nH]nc(N)c23)cc1 [Example 5, N-(4-(4-amino-1-cyclopentyl-7-oxo-6,7-dihydro-1H-pyrazolo[3,4-d]pyridazin-3-yl)benzyl)-2-methoxybenzamide] | 68 nM |
| COc1ccc(F)cc1C(=O)NCc1ccc(-c2nn([C@@H](C(F)F)C3CC3)c3c(=O)[nH]nc(N)c23)cc1 [Example 89, (R)-N-(4-(4-amino-1-(1-cyclopropyl-2,2-difluoroethyl)-7-oxo-6,7-dihydro-1H-pyrazolo[3,4-d]pyridazin-3-yl)benzyl)-5-fluoro-2-methoxybenzamide] | 1 nM |
| COc1ccc(F)cc1C(=O)NCc1ccc(-n2nc(C3CCCC3(F)F)c3c(=O)[nH]nc(N)c32)cc1 (stereo not shown) [Example 90, N-(4-(7-amino-3-(2,2-difluorocyclopentyl)-4-oxo-4,5-dihydro-1H-pyrazolo [3,4-d]pyridazin-1-yl)benzyl)-5-fluoro-2-methoxybenzamide] | 15 nM |
| CCC(C)c1nn(-c2ccc(CNC(=O)c3cc(F)ccc3OC)cc2)c2c(N)n[nH]c(=O)c12 (stereo not shown) [Example 92a, N-(4-(7-amino-3-(sec-butyl)-4-oxo-4,5-dihydro-1H-pyrazolo[3,4-d]pyridazin-1-yl)benzyl)-5-fluoro-2-methoxybenzamide] | 10 nM |
| CC[C@@H](C)c1nn(-c2ccc(CNC(=O)c3cc(F)ccc3OC)cc2)c2c(N)n[nH]c(=O)c12 [Example 92b, (R)-N-(4-(7-amino-3-(sec-butyl)-4-oxo-4,5-dihydro-1H-pyrazolo[3,4-d]pyridazin-1-yl)benzyl)-5-fluoro-2-methoxybenzamide] | 22 nM |
| COc1ccc(F)cc1C(=O)NCc1ccc(-n2nc(CC3CC3)c3c(=O)[nH]nc(N)c32)cc1 [Example 93, N-(4-(7-amino-3-(cyclopropylmethyl)-4-oxo-4,5-dihydro-1H-pyrazolo[3,4-d]pyridazin-1-yl)benzyl)-5-fluoro-2-methoxybenzamide] | 24 nM |
| COc1ccc(F)cc1C(=O)NCc1ccc(-n2nc(C(C)(C)C)c3c(=O)[nH]nc(N)c32)cc1 [Example 94, N-(4-(7-amino-3-(tert-butyl)-4-oxo-4,5-dihydro-1H-pyrazolo[3,4-d]pyridazin-1-yl)benzyl)-5-fluoro-2-methoxybenzamide] | 1 nM |
| COc1ccc(F)cc1C(=O)NCc1ccc(-n2nc(C(C)C3CC3)c3c(=O)[nH]nc(N)c32)cc1 (stereo not shown) [Example 96, N-(4-(7-amino-3-(1-cyclopropylethyl)-4-oxo-4,5-dihydro-1H-pyrazolo[3,4-d]pyridazin-1-yl)benzyl)-5-fluoro-2-methoxybenzamide] | 1 nM |
| COc1ccc(F)cc1C(=O)NCc1ccc(-n2nc(C3CC(F)(F)C3)c3c(=O)[nH]nc(N)c32)cc1 [Example 97, N-(4-(7-amino-3-(3,3-difluorocyclobutyl)-4-oxo-4,5-dihydro-1H-pyrazolo[3,4-d]pyridazin-1-yl)benzyl)-5-fluoro-2-methoxybenzamide] | 23 nM |
| COc1ccc(F)cc1C(=O)NCc1ccc(-n2nc(C3(F)CC3)c3c(=O)[nH]nc(N)c32)cc1 [Example 98, N-(4-(7-amino-3-(1-fluorocyclopropyl)-4-oxo-4,5-dihydro-1H-pyrazolo[3,4-d]pyridazin-1-yl)benzyl)-5-fluoro-2-methoxybenzamide] | 92 nM |
| COc1ccc(F)cc1C(=O)NCc1ccc(-n2nc(C3CC3(F)F)c3c(=O)[nH]nc(N)c32)cc1 (stereo not shown) [Example 99, N-(4-(7-amino-3-(2,2-difluorocyclopropyl)-4-oxo-4,5-dihydro-1H-pyrazolo[3,4-d]pyridazin-1-yl)benzyl)-5-fluoro-2-methoxybenzamide] | 65 nM |
| COc1ccc(F)cc1C(=O)NCc1ccc(-n2c(=O)n(C3CCC3)c3c(=O)[nH]nc(N)c32)cc1 [Example 102, N-(4-(7-amino-3-cyclobutyl-2,4-dioxo-2,3,4,5-tetrahydro-1H-imidazo[4,5-d]pyridazin-1-yl)benzyl)-5-fluoro-2-methoxybenzamide] | 76 nM |
| COc1ccc(F)cc1C(=O)NCc1ccc(-c2cn([C@@H]3CCN(C(=O)OC(C)C)C3)c3c(=O)[nH]nc(N)c23)cc1 [Example 105, isopropyl (R)-3-(4-amino-3-(4-((5-fluoro-2-methoxybenzamido)methyl)phenyl)-7-oxo-6,7-dihydro-1H-pyrrolo[2,3-d]pyridazin-1-yl)pyrrolidine-1-carboxylate] | 4 nM |
| COc1ccc(F)cc1C(=O)NCc1ccc(-c2cn([C@@H]3CCN(C(=O)OC4CC4)C3)c3c(=O)[nH]nc(N)c23)cc1 [Example 106, cyclopropyl (R)-3-(4-amino-3-(4-((5-fluoro-2-methoxybenzamido)methyl)phenyl)-7-oxo-6,7-dihydro-1H-pyrrolo[2,3-d]pyridazin-1-yl)pyrrolidine-1-carboxylate] | 11 nM |
| COc1ccc(F)cc1C(=O)NCc1ccc(-c2cn([C@@H]3CCN(C(=O)N4CCC4)C3)c3c(=O)[nH]nc(N)c23)cc1 [Example 107, (R)-N-(4-(4-amino-1-(1-(azetidine-1-carbonyl)pyrrolidin-3-yl)-7-oxo-6,7-dihydro-1H-pyrrolo[2,3-d]pyridazin-3-yl)benzyl)-5-fluoro-2-methoxybenzamide] | 11 nM |
| C=CC(=O)N1CC[C@@H](n2cc(-c3ccc(CNC(=O)c4cc(F)ccc4OC)cc3)c3c(N)n[nH]c(=O)c32)C1 [Example 109, (R)-N-(4-(1-(1-acryloylpyrrolidin-3-yl)-4-amino-7-oxo-6,7-dihydro-1H-pyrrolo [2,3-d]pyridazin-3-yl)benzyl)-5-fluoro-2-methoxybenzamide] | 1 nM |
| CCS(=O)(=O)N1CC[C@@H](n2cc(-c3ccc(CNC(=O)c4cc(F)ccc4OC)cc3)c3c(N)n[nH]c(=O)c32)C1 [Example 110, (R)-N-(4-(4-amino-1-(1-(ethylsulfonyl)pyrrolidin-3-yl)-7-oxo-6,7-dihydro-1H-pyrrolo[2,3-d]pyridazin-3-yl)benzyl)-5-fluoro-2-methoxybenzamide] | 23 nM |
| COc1ccc(F)cc1C(=O)NCc1ccc(-c2cn([C@@H]3CCN(S(=O)(=O)C(C)C)C3)c3c(=O)[nH]nc(N)c23)cc1 [Example 111, (R)-N-(4-(4-amino-1-(1-(isopropylsulfonyl)pyrrolidin-3-yl)-7-oxo-6,7-dihydro-1H-pyrrolo[2,3-d]pyridazin-3-yl)benzyl)-5-fluoro-2-methoxybenzamide] | 14 nM |
| COc1ccc(F)cc1C(=O)NCc1ccc(-c2cn([C@@H]3CCN(S(=O)(=O)C4CC4)C3)c3c(=O)[nH]nc(N)c23)cc1 [Example 112, (R)-N-(4-(4-amino-1-(1-(cyclopropylsulfonyl)pyrrolidin-3-yl)-7-oxo-6,7-dihydro-1H-pyrrolo[2,3-d]pyridazin-3-yl)benzyl)-5-fluoro-2-methoxybenzamide] | 2 nM |
